Results: patent publication US12697325B2 (TENNOR THERAPEUTICS (SUZHOU) LIMITED, priority 2021, dated 2026)
Like-named read-outs stand apart in the source and are kept apart here.

Experiments:
[1] = cited from earlier work
[2] = test system: Acinetobacter baumannii strains; assay: Minimum inhibitory concentration (CLSI M07), Example 2, 20 strains; assay type: cell-based
[3] = Pharmacokinetics in plasma and bronchoalveolar lavage fluid of female CD-1 mice; assay type: in vivo; conditions: female, CD-1, mouse
Procedure: An appropriate amount of the test drug was accurately weighed and mixed with the appropriate volume of vehicle (5% DMSO+0.5% Tween 80 in normal saline) to obtain a clear solution for the test in Table 9. The formulation solution for injection was prepared to sterile filtration through a 0.22 μm filter prior to administration. The mice were dosed with the drug within 30 min after the formulated solution for injection was prepared. A 1.5 mL of the formulation solution for injection was transferred into a polypropylene microcentrifuge tube for dose verification by LC/UV or LC-MS/MS.
All blood samples were transferred to pre-frozen EDTA-K2 tubes and placed on wet ice until centrifugation. […]
Plasma: approximately 100 μL of blood sample was transferred into pre-cooled commercial EDTA-K2 tubes and placed on wet ice until centrifugation. After the blood samples were centrifuged at approximately 4° C. and 3, 200 g for 10 min, plasma was collected and transferred to pre-labeled 96-well plates or polypropylene tubes, flash frozen on dry ice, and stored at ≤−60° C. until the analysis by LC-MS/MS.
Serum: approximately 100 μL of blood sample was transferred into a tube without anticoagulant and placed on wet ice for approximately 30 min and centrifuged at 4° C. and 3,000 g for 10 min, and the serum was collected and transferred into pre-labeled PP tubes placed on wet ice. After the completion of all the collections, serum samples were stored at −60° C. until being sent to the animal experimental team to determine urea concentration.
Bronchoalveolar lavage fluid (BALF): pre-cooled tracheo-alveolar lavage fluid was injected into the trachea or predefined bronchi. After a full expansion of the lung tissue, the lavage fluid was slowly drawn out with a syringe 30 s later. The lung was lavaged three times. During the last lavage, the lung tissue was gently squeezed to restore the fluid. To prevent contamination of other lung tissues, the corresponding bronchi were ligated. Both lungs of the mice were perfused with 0.8 mL.
[…] Approximately 200 μL of the BALF samples were transferred into a polypropylene tube, rapidly frozen on dry ice, maintained at ≤−60° C., and sent to the animal experimental team to determine urea concentration. The remaining BALF samples (approximately 600 μL) were rapidly frozen on dry ice and maintained at ≤−60° C. until being submitted for drug concentration analysis by LC-MS/MS.

[4] = 0.5 g, q8 h via infusion for 2 h; cited from earlier work

SMILES: NC(=O)[C@@H]1CC[C@@H]2CN1C(=O)N2OS(=O)(=O)O [Avibactam, [(2S,5R)-2-carbamoyl-7-oxo-1,6-diazabicyclo [3.2.1]oct-6-yl] bisulfate]
- Protein binding [1]: ~8%
- MIC of the strain BAA-1795 (component in the combination) ([2]; strain BAA-1795, sulbactam/avibactam 4:1, concentration of the named component): 2 µg/mL
- MIC90 of the single component in the combination ([2]; sulbactam sodium:avibactam sodium = 4:1, concentration of the named component): 4 µg/mL
- MIC50 of the single component in the combination ([2]; sulbactam sodium:avibactam sodium = 4:1, concentration of the named component, Examples 1 and 2): 2 µg/mL
- Kp at 0.5 h ([3]; BALF/plasma, intravenous, 25 mg/kg, 0.50 h, read-out: BALF/plasma ratio Mean): 0.0474
- Kp at 3 h ([3]; BALF/plasma, intravenous, 150 mg/kg, 3.00 h, read-out: BALF/plasma ratio Mean): 0.0319
- Kp at 5 h ([3]; BALF/plasma, intravenous, 150 mg/kg, 5.00 h, read-out: BALF/plasma ratio Mean): 0.153
- Kp at 8 h ([3]; BALF/plasma, intravenous, 150 mg/kg, 8.00 h, read-out: BALF/plasma ratio Mean): 0.211
- concentration at 0.5 h ([3]; ELF, intravenous, 0.50 h, group 01 (25 mg/kg per Table 9), read-out: ELF concentration Mean ± SD): 5400 ± 2390 ng/mL
- concentration at 3 h ([3]; ELF, intravenous, 3.00 h, 150 mg/kg, read-out: ELF concentration Mean ± SD): 4730 ± 2410 ng/mL
- concentration at 5 h ([3]; ELF, intravenous, 5.00 h, 150 mg/kg, read-out: ELF concentration Mean ± SD): 129 ± 75.2 ng/mL
- concentration at 8 h ([3]; ELF, intravenous, 8.00 h, 150 mg/kg, read-out: ELF concentration Mean ± SD): 22.2 ng/mL
- concentration at 0.5 h ([3]; bronchoalveolar lavage fluid (BALF), intravenous, 0.50 h, group 01 (25 mg/kg per Table 9), read-out: BALF concentration Mean ± SD): 849 ± 210 ng/mL
- concentration at 3 h ([3]; bronchoalveolar lavage fluid (BALF), intravenous, 3.00 h, 150 mg/kg, read-out: BALF concentration Mean ± SD): 626 ± 459 ng/mL
- concentration at 5 h ([3]; bronchoalveolar lavage fluid (BALF), intravenous, 5.00 h, 150 mg/kg, read-out: BALF concentration Mean ± SD): 19 ± 11.6 ng/mL
- concentration at 8 h ([3]; bronchoalveolar lavage fluid (BALF), intravenous, 8.00 h, 150 mg/kg, read-out: BALF concentration Mean ± SD): 5.37 ng/mL
- concentration at 0.25 h ([3]; plasma, 0.25 h, group 01 (25 mg/kg per Table 9), intravenous dripping, read-out: Plasma concentration Mean ± SD): 16500 ± 2260 ng/mL
- concentration at 0.5 h ([3]; plasma, 0.50 h, group 01 (25 mg/kg per Table 9), intravenous dripping, read-out: Plasma concentration Mean ± SD): 17900 ± 2040 ng/mL
- concentration at 1 h ([3]; plasma, 1.00 h, 150 mg/kg intravenous dripping, read-out: Plasma concentration Mean ± SD): 18800 ± 3070 ng/mL
- concentration at 3 h ([3]; plasma, 3.00 h, 150 mg/kg intravenous dripping, read-out: Plasma concentration Mean ± SD): 18300 ± 4530 ng/mL
- concentration at 4 h ([3]; plasma, 4.00 h, 150 mg/kg intravenous dripping, read-out: Plasma concentration Mean ± SD): 285 ± 226 ng/mL
- concentration at 5 h ([3]; plasma, 5.00 h, 150 mg/kg intravenous dripping, read-out: Plasma concentration Mean ± SD): 123 ± 34.8 ng/mL
- concentration at 6 h ([3]; plasma, 6.00 h, 150 mg/kg intravenous dripping, read-out: Plasma concentration Mean ± SD): 57.8 ± 3.1 ng/mL
- concentration at 8 h ([3]; plasma, 8.00 h, 150 mg/kg intravenous dripping, read-out: Plasma concentration Mean ± SD): 28.5 ± 9.52 ng/mL
- Part of the dosing interval with plasma concentration above 4 μg/mL [4]: 50%
- Part of the dosing interval with plasma concentration above 8 μg/mL [4]: 30%
